Test results as given in patent publication US8084589B2, “Phosphoramidite nucleoside analogs” (University of Massachusetts, priority 2007, dated 2011).
Strand notation (5' to 3'): a small letter for the sugar, then the base; units joined by * are phosphorothioate-linked, units joined directly phosphodiester-linked; [ ] holds rarer units or linkages, { } end groups; capitals alone tell only the bases. [TEGam] = internucleoside phosphate triester carrying a triethylene glycol amino linker (free amine, native form); {Y} = hydroxypropyldithiopropyl phosphate linker, HOCH2CH2SSCH2CH2CH2O-P(O)(OH)-; d = 2'-deoxy (DNA)

Key:
[1] = Storage stability of synthon 2 (coupling efficiency on the synthesizer); type: physicochemical; conditions: for coupling yield of the monomer: in anhydrous acetonitrile at room temperature, 3 minutes coupling
Procedure: Usually the compound was dissolved in anhydrous acetonitrile under argon and was kept on the synthesizer for up to two weeks at room temperature. The coupling yield of the monomer for the 3 minutes coupling duration was 98-99% after 7-8 days, and for the same coupling conditions coupling yield decreased to 90% after additional 10-12 days. Coupling yields were assessed using a DMTr detector reading on the synthesizer.

[2] = Storage stability of oligonucleotide conjugate in water (HPLC); type: physicochemical; conditions: deionized water, −20° C., approximately four months
Procedure: A limited stability study of one of the novel oligonucleotide conjugates, VIII, which contained 800CW dye at the 8th nucleoside from the 5′-end (see Table 2), was performed.

[3] = Melting temperature of oligonucleotide duplexes (UV, FRET loss or dequenching); type: physicochemical; conditions: for Melting point, ° C, method: Table 5, method UV
Procedure: Watson-Crick base paring properties of the modified oligonucleotides were evaluated by comparison of melting temperatures of a duplex formed between the amino-functionalized oligonucleotide CGG AAA GT*C CCT CAT AGC T (I, SEQ ID NO: 1) and its complementary unmodified oligonucleotide 3′[…] 5′ (Duplex 1, SEQ ID NO:5) and a control, unmodified duplex with the same sequence (Duplex 2). The melting temperatures were almost equal, i.e. 65 and 66° C. for Duplexes 1 and 2, respectively.
The conjugates were characterized by HPLC analysis, mass spectrometry and UV/VIS spectroscopy. Briefly, spectral measurements were performed using a Cary 50 Bio UV-visible spectrophotometer. Melting temperatures were determined with a step-wise Peltier temperature ramping bath in 2 degree mode in a temperature-controlled cuvette holder. Electrospray mass spectrometry (MS) was performed with a LTQ Linear Ion trap mass spectrometer (Thermo, Inc) with use of a Nanomate (Advion, Inc.) robot. Spectra were obtained in the negative ion mode with 1.8 kV spray voltage and 0.8 PSI back pressure (UMMS Proteomic and Mass Spectrometry Core Facility, University of Massachusetts Medical School, Worcester, Mass.). Sample solutions were adjusted to 75% methanol before MS analysis. The full mass spectra were acquired for 30 seconds from m/z 400-2000 using 2 ms scans and 10 ms maximum injection time.
The synthesized ODN duplex probes were characterized by comparing melting temperatures of native, non-modified ODN pair to those duplexes prepared by using covalently labeled ODNs.
The FRET between Cy5.5 and the acceptor on complementary ODN was observed after Cy5.5-ODN3 was incubated with Cy7- or 800CW-linked to ODN2 (see FIGS. 20A-B). […] In the presence of internucleoside phosphate-linked Cy7 on the complementary strand it was observed more than 10 times lower fluorescence of Cy5.5 measured at 700 nm (λex=675 nm) and a 3-fold higher fluorescence of Cy7 (if compared to the duplex formed between Cy7-ODN2 and ODN3), FIGS. 20A-D. The formation of duplexes and reversible FRET effects were further studied in more detail by following sigmoidal dependence of the temperature-dependent increase of Cy5.5 fluorescence in a microcuvette of a spectrofluorometer. These experiments enabled measurement of two parameters: melting temperatures and the overall FRET efficacy (Table 5).

[4] = biological target: T1, NF-κB p50 (Homo sapiens, UniProt P19838); assay: EMSA of recombinant p50 binding to fluorescent duplexes; conditions: both Cy5.5-800CW and Cy5.5-Cy7 donor/acceptor pairs
T1 sequence (P19838 1-433 limits assumed): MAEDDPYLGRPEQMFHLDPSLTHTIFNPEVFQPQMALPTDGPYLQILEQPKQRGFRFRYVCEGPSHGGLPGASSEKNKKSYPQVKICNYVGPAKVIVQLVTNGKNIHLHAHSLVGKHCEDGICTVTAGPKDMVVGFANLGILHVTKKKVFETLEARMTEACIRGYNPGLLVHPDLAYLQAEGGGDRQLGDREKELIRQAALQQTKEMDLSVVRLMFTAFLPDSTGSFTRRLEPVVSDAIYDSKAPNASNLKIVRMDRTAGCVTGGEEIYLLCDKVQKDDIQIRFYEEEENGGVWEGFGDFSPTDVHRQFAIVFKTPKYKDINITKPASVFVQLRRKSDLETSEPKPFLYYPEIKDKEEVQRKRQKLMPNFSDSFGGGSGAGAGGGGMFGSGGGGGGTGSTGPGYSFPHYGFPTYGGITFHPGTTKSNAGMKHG
Excerpt: The binding of NF-κB p50 to duplexes was initially followed by using two methods: 1) electrophoretic mobility shift essay (EMSA) in polyacrylamide gels; 2) fluorescence energy transfer loss measurements after adding p50 to the duplex in solution. In the first case the components of the mixture are off equilibrium since the free duplex is separated due to a faster migration in electric field during the analysis. The second method afforded measurements at the equilibrium but the observed fluorescence change values are affected by the background fluorescence due to the presence of the free duplex. […] Fluorescence of both free and bound duplex could be imaged by using a transillumination scanner and CCD camera that detected emitted light at two wavelengths—[…] (FIG. 21A) and 800 nm (FIG. 21B, fused image—FIG. 21C). […] However, by comparing Cy5.5-labeled duplexes (ODN2/Cy5.5-ODN3 and ODN4/Cy5.5-ODN5) it was determined that in the case of full-length binding sites 94% of fluorescence co-migrated with p50, whereas only 63% co-migrated with ODN4/Cy5.5-ODN5 duplex (FIG. 21D) at the saturating concentrations of p50 monomer (200 nM).
The half-maximal amount of p50 was 238-300 ng (corresponding to approximately 600 nM). […] A similar trend was observed if 800CW dye was used as Cy5.5 fluorescence acceptor and the differences were also significant (p=0.02).

COc1ccc(C(OC[C@H]2O[C@@H](n3cc(C)c(=O)[nH]c3=O)C[C@@H]2OP(OCCOCCOCCNC(=O)C(F)(F)F)N(C(C)C)C(C)C)(c2ccccc2)c2ccc(OC)cc2)cc1 (stereo partly shown) [synthon 2, 5′-O-DMTr-thymidine-3′-O-(2-(2-(2-trifluoroacetamidoethoxy)-ethoxy)ethyl)-N,N-diisopropylphosphoramidite]
stability in dry acetonitrile ([1]; dry acetonitrile, on synthesizer, room temperature): stable in dry acetonitrile for at least one week | coupling yield of the monomer ([1]; after 7-8 days): 98-99% | coupling yield of the monomer ([1]; after additional 10-12 days): 90% | stability of dry monomer on storage ([1]; stored six months at −20° C.): no apparent decrease in coupling efficiency

CGGAAAGT^800CWCCCTCATAGCT [VIII]
stability by HPLC analysis [2]: no signs of degradation

I/XIX: non-labelled duplex of I and XIX (chain 1 dCdGdGdAdAdAdGdT[TEGam]dCdCdCdTdCdAdTdAdGdCdT; chain 2 dAdGdCdTdAdTdGdAdGdGdGdAdCdTdTdTdCdCdG-{Y})
Melting point, ° C., (method) ([3]; Table 3, method UV): 64 (UV) ° C. | Melting point, ° C, method [3]: 64 (UV) ° C

ODN1/ODN3: non-labeled duplex of ODN1 and ODN3 (chain 1 CGGAAAGTCCCTCATAGCT; chain 2 dAdGdCdTdAdTdGdAdGdGdGdAdCdTdTdTdCdCdG-{Y}; chain 1: unmodified DNA) [reference compound]
Melting point, ° C, method [3]: 66 (UV) ° C

ODN4/ODN5: duplex with truncated NF-κB p50 binding site GGAAAG (chain 1 TGGAAAGCTTTTTACAGTT; chain 2 AACTGTAAAAAGCTTTCCA; listed as DNA, chemistry not fully specified)
Melting point, ° C, method [3]: 61 (UV) ° C | fluorescence changes in EMSA bands on p50 binding [4]: no measurably significant fluorescence changes
